Key:
femoral artery [1] = assay: Increase in femoral arterial blood flow in anesthetized dogs, cumulative i.v. dosing (Experimental Example 1); assay type: in vivo, dog; conditions: 60 min after administration
Experimental: Adult dogs (one group consisting of a dog) were intravenously given the test compound under anesthesia and artificial respiration successively at intervals of 60 minutes so that the dose can be 10, 30, 100 and 300 μg/kg body weight, and the blood flow of femoral artery was measured with a time course. […] An increase in the femoral arterial blood flow was calculated by subtracting the blood flow before the administration of the first dose of test compound as the standard value (the base line) from that 60 minutes after each administration.

femoral artery [2] = assay: Time course of femoral arterial blood flow in dogs after i.v. administration (Experimental Example 2); assay type: in vivo, dog
femoral artery [3] = assay: Change of femoral arterial blood flow in anesthetized dogs (Experimental Example 4); assay type: in vivo, dog; conditions: 100 μg/kg i.v.
Experimental: (§1) Each test compound was intravenously administered to adult dogs (one group consisting of 2 or 4 dogs) under anesthesia and artificial respiration at a dose of 100 μg/kg body weight. Femoral arterial blood flow, vertebral arterial blood flow and arterial blood pressure were measured 1, 3, 5, 10, 20 and 30 minutes after the administration. The femoral arterial blood flow and vertebral arterial blood flow were measured with an electromagnetic blood flowmeter (manufactured by Nihon Koden, MFV-2100, trade name) through a flow probe attached to the femoral artery or vertebral artery. The arterial blood pressure was measured with a pressure transducer (manufactured by Millar, MICRO-TIP, Model SPC-350) through a catheter attached to the brachial artery.
(§2) Changes of the femoral arterial blood flow, vertebral arterial blood flow and arterial blood pressure were estimated by comparing the values measured before and after the administration of the test compound.

femoral artery [4] = assay: Femoral arterial blood flow, hind leg cooling model of Raynaud's disease (Experimental Example 5); assay type: in vivo, male SD rat
Experimental: (Lower limbs peripheral circulation disorder model due to hind leg cooling: Model of Raynaud's disease)
A catheter was inserted into left common carotid artery of a male SD rat (one group consisting of 5 rats) under anesthesia, and the arterial blood pressure was measured with a standard pressure transducer (manufactured by Nihon Koden. TP-200T, trade name) through a catheter attached to the artery. After isolating the left femoral artery from the peripheral connective tissue, a flow probe (HDP 10-20R: F 1.0 mm) of a Doppler blood flow meter (manufactured by Crystal Biotec Co., PD20, trade name) was attached thereto and was connected to the Doppler blood flow meter to measure the artery blood flow. After the operation, at the time that the state became stable, the left hind leg was exposed to a perfused solution at 10° C. to decrease the femoral arterial blood flow. After 30 minutes, 1 ml/kg of a 0.9% NaCl solution or 300 μg/kg of the test compound A was intravenously administered and the state was observed. In the case of Beraprost Na, continuous injection in an amount of […] was carried out after 30 minutes from cooling. The compounds to be used were each dissolved in a 0.9% NaCl solution.
The present model is disclosed, for example, in Nishio et al, "Effect of Beraprost Sodium on Peripheral Circulatory Disturbances Induced by Various Stimuli", Arzneim.-Forsch./Drug Res., 39 (II), Nr. 10 (1989), pp. 1229-1234. Note particularly the section "2.4. Sphygmometry in rat hind paw", at page 1230.

hind leg edema = assay: Hind leg frostbite model: model of Raynaud's disease (Experimental Example 7); assay type: in vivo, male SD rat
Experimental: (Hind leg frostbite model: Model of Raynaud's disease)
Left hind leg of male SD rat (one group: 3 to 5 rats) was dipped in dry ice-ethanol for 2 seconds, and after 30 minutes, 30 mg/kg of a test compound dissolved in pure water was administered to the rat and then orally administered twice a day for 6 days continuously. At the final day of the experiment, volumes of both hind legs (below ankle joint) of the rat were measured by a water substitution method and an edema ratio was calculated from the following equation. Also, an inhibition ratio of the test compound administered group was obtained by comparing the edema ratio of the group in which the test compound was not administered. [formula]
The present model is disclosed, for example, in Hayashi et al, "Pharmacological Studies on Niceritrol (10), The Effects on Experimental Models of Peripherally Circulatory Insufficiency", Applied Pharmacology, 24 (6): 859-864 (1982), noting particularly the section "2. Effect on an experimental frostbite model" on page 860.

mouse = assay: Acute oral toxicity in mouse; assay type: in vivo; conditions: 1000 mg/kg oral, even after 2 days
Text: Furthermore, a (-)-cis-1,5-benzothiazepine derivative according to formula (I) has low toxicity and can be used safely.

arterial blood pressure = assay: Change of arterial blood pressure in anesthetized dogs (Experimental Example 4); conditions: 100 μg/kg i.v.
Experimental: as §1, §2

[5] = 30 mg/kg, orally twice a day for 6 days

In the case of `CC(=O)O[C@@H]1C(=O)N(CCN(C)C)c2ccc(C)cc2S[C@@H]1c1ccc(C)cc1` [Compound A], the “Increase in femoral arterial blood flow” value (femoral artery [1]; 10 μg/kg i.v.) is reported as 13 mL/min, the “Increase in femoral arterial blood flow” value (femoral artery [1]; 30 μg/kg i.v.) is reported as 30 mL/min and the “Increase in femoral arterial blood flow” value (femoral artery [1]; 100 μg/kg i.v.) is reported as 34 mL/min. For the same molecule, the “Increase in femoral arterial blood flow” value (femoral artery [1]; 300 μg/kg i.v.) was 32 mL/min, the “Blood flow (femoral artery)” value (femoral artery [2]; 100 μg/kg i.v., 30 min) was 136.3 mL/min and the “Increase in blood flow (femoral artery)” value (femoral artery [2]; 100 μg/kg i.v., 30 min) was 55.5 mL/min. The “Blood flow (femoral artery)” value (femoral artery [2]; 100 μg/kg i.v., 60 min) was 146.3 mL/min, the “Increase in blood flow (femoral artery)” value (femoral artery [2]; 100 μg/kg i.v., 60 min) was 65.5 mL/min and the “Blood flow (femoral artery)” value (femoral artery [2]; 100 μg/kg i.v., 120 min) was 143.5 mL/min. For the same molecule, the “Increase in blood flow (femoral artery)” value (femoral artery [2]; 100 μg/kg i.v., 120 min) was 62.8 mL/min, the “Blood flow (femoral artery)” value (femoral artery [2]; 100 μg/kg i.v., 180 min) was 141.3 mL/min and the “Increase in blood flow (femoral artery)” value (femoral artery [2]; 100 μg/kg i.v., 180 min) was 60.5 mL/min. For the same molecule, the “Blood flow (femoral artery)” value (femoral artery [2]; 100 μg/kg i.v., 240 min) was 141.5 mL/min, the “Increase in blood flow (femoral artery)” value (femoral artery [2]; 100 μg/kg i.v., 240 min) was 60.8 mL/min and the “Blood flow (femoral artery)” value (femoral artery [2]; 100 μg/kg i.v., 300 min) was 136.3 mL/min. For the same molecule, the “Increase in blood flow (femoral artery)” value (femoral artery [2]; 100 μg/kg i.v., 300 min) was 55.5 mL/min, the “Blood flow (femoral artery)” value (femoral artery [2]; before administration (baseline)) was 80.8 mL/min and the “Femoral Arterial Blood Flow change” value (femoral artery [3]; 1 min) was 3.5 Δ ml/min. For the same molecule, the “Femoral Arterial Blood Flow change” value (femoral artery [3]; 3 min) was 5.5 Δ ml/min, the “Femoral Arterial Blood Flow change” value (femoral artery [3]; 5 min) was 7.8 Δ ml/min and the “Femoral Arterial Blood Flow change” value (femoral artery [3]; 10 min) was 13.0 Δ ml/min. For the same molecule, the “Femoral Arterial Blood Flow change” value (femoral artery [3]; 20 min) was 21.5 Δ ml/min, the “Femoral Arterial Blood Flow change” value (femoral artery [3]; 30 min) was 28.0 Δ ml/min and the “AUC60 of the femoral arterial blood flow” value (femoral artery [3]; 60 minutes after administration) was 1538.4 mL. For the same molecule, the “femoral arterial blood flow increasing activity” value (femoral artery [3]; even after 30 minutes, in words) was “excellent femoral arterial blood flow increasing activity”, the “Femoral Arterial Blood Flow change” value (femoral artery [4]; 0 min (before cooling and administration; 30 min = 0)) was 1.364 Δ ml/min and the “Femoral Arterial Blood Flow change” value (femoral artery [4]; 40 min, given at 30 min: A 300 μg/kg i.v., J 0.3 μg/kg/ml continuous injection) was 0.072 Δ ml/min. The “Femoral Arterial Blood Flow change” value (femoral artery [4]; 50 min, given at 30 min: A 300 μg/kg i.v., J 0.3 μg/kg/ml continuous injection) was 0.276 Δ ml/min, the “Femoral Arterial Blood Flow change” value (femoral artery [4]; 60 min, given at 30 min: A 300 μg/kg i.v., J 0.3 μg/kg/ml continuous injection) was 0.416 Δ ml/min and the “Femoral Arterial Blood Flow change” value (femoral artery [4]; 70 min, given at 30 min: A 300 μg/kg i.v., J 0.3 μg/kg/ml continuous injection) was 0.452 Δ ml/min. The “Femoral Arterial Blood Flow change” value (femoral artery [4]; 80 min, given at 30 min: A 300 μg/kg i.v., J 0.3 μg/kg/ml continuous injection) was 0.452 Δ ml/min, the “Femoral Arterial Blood Flow change” value (femoral artery [4]; 90 min, given at 30 min: A 300 μg/kg i.v., J 0.3 μg/kg/ml continuous injection) was 0.496 Δ ml/min and the “% Inhibition of edema” value (hind leg edema; [5]) was 27%. For the same molecule, the Edema (hind leg edema; [5]) was 32 ± 8%, the edema inhibition activity (hind leg edema; rat hind leg frostbite model, in words) was “showed edema inhibition activity” and the lethal toxicity (mouse) was “no lethal toxicity was observed”. For the same molecule, the “Arterial Blood Pressure change (side effects)” value (“Arterial Blood Pressure change” below) (arterial blood pressure; 1 min) was -1.3 ΔmmHg, the “Arterial Blood Pressure change” value (arterial blood pressure; 3 min) was -0.8 ΔmmHg and the “Arterial Blood Pressure change” value (arterial blood pressure; 5 min) was -1.8 ΔmmHg. The “Arterial Blood Pressure change” value (arterial blood pressure; 10 min) was -1.8 ΔmmHg, the “Arterial Blood Pressure change” value (arterial blood pressure; 20 min) was -2.3 ΔmmHg and the “Arterial Blood Pressure change” value (arterial blood pressure; 30 min) was -0.5 ΔmmHg. The “effect on arterial blood pressure” value (arterial blood pressure; G and H: one minute after, in words) was “substantially no effect”.
